Results taken from article PMC12424289, “Programmable Nanostructure Assembly of a Paclitaxel Derivative Enables Tunable Anticancer Therapy via Hydrogen Bond Engineering” (ACS Nano, 2025).

Key:
[1] = Surface tension measurement / critical aggregation concentration; format: physicochemical
Method: Surface tension measurements were conducted at 25 °C using a drop shape analyzer (DSA30S; Kruss, Germany). Starting with a 5.0 mg·mL^–1 PTP dispersion, serial dilutions were prepared to obtain a range of lower concentrations. Following overnight assembly, the PTP dispersion was drawn into a syringe (HENKE-JECT, Germany), and a droplet was suspended from the needle tip. The outer diameter of the needle (1.825 mm) served as the reference for image analysis. Images of the droplet were captured, and the surface tension was calculated using the Young–Laplace equation based on the droplet’s shape.

mouse breast 4T1 cells = assay: CCK8 antiproliferation assay, 4T1; format: cell-based; settings: 4T1, 48 h treatment
Method: (§1) The mouse breast cancer cell line 4T1 and the human ovarian cancer cell line SKOV3 were cultured in RPMI 1640 medium supplemented with 10% fetal bovine serum, 100 units·mL^–1 penicillin, and 100 μg·mL^–1 streptomycin. The human lung cancer cell line A549 and the luciferase-expressing human colorectal carcinoma cell line HCT116-Luc were cultured in high-glucose DMEM medium supplemented with 10% fetal bovine serum, 100 units·mL^–1 penicillin, and 100 μg·mL^–1 streptomycin. All cell lines were maintained at 37 °C in a Steri-Cycle 371 incubator (Thermo Scientific, USA) with a humidified atmosphere of 5% CO2. Only cells between passages 5 and 15 were used for cell-based experiments.
(§2) The antiproliferative activity of PTP was evaluated using the Cell Counting Kit-8 (CCK8) assay. PTX solution served as a positive control. Cell suspensions were prepared at a density of 3 × 10^4 cells·mL^–1 and seeded in 96-well plates at a volume of 100 μL per well. The plates were incubated for 24 h to allow cell attachment and growth. Subsequently, the culture media were replaced with fresh media containing varying concentrations of PTX or PTP solutions (100 μL per well), and the cells were incubated for an additional 48 h (n = 3). Control wells received fresh culture media alone (n = 3). […] Finally, the absorbance was measured at 450 nm using a microplate reader (Synergy H1, BioTek, USA). […]

human lung A549 cells = assay: CCK8 antiproliferation assay, A549; format: cell-based; settings: A549, 48 h treatment
Method: as §1, §2

[2] = In vitro PTP release (transwell, PBS); format: physicochemical; settings: over 12 h, 5.0 mg·mL^–1 PTP
Method: The in vitro drug release from the PTP assemblies and PTP@HA was assessed in 1 × PBS (pH 7.4). A 0.1 mL dispersion of PTP (5.0 mg·mL^–1) or PTP@HA (equivalent to 5.0 mg·mL^–1 PTP and 20.0 mg·mL^–1 HA) in saline was added to the upper chamber of a 24-well transwell plate (#3413, Corning, USA) equipped with a 0.4 μm polycarbonate membrane (n = 3). The lower chamber contained 0.6 mL 1 × PBS. The setup was maintained at 37 °C with shaking at 100 rpm. At specified time intervals, the PBS in the lower chamber was replaced with fresh PBS. Each collected sample was mixed with 600 μL acetonitrile and vortexed for 1 min. PTP release and PTX degradation products were quantified by HPLC.

[3] = test system: human colon HCT116-Luc cells; assay: CCK8 antiproliferation assay, HCT116-Luc; format: cell-based; settings: 48 h treatment
Method: as §1, §2

[4] = Serum biochemistry safety assessment; format: in vivo, Balb/c mice; settings: mice, iv 10 mg·kg^–1 PTX equivalent, q.o.d. × 5, day 10; PTP versus PTP@PEG
Method: In a related safety assessment, female Balb/c mice (18–22 g, n = 3) were fasted for 12 h, then treated intravenously with either 5% G, PTX solution, PTP, or PTP@PEG using the previously described dosing regimen (10 mg·kg^–1 PTX equivalent, q.o.d. × 5). On day 10, blood was collected and then processed to obtain serum by centrifugation (2000 rpm, 10 min, 4 °C). Serum samples were subsequently analyzed for biochemical markers using a Chemray 240 automated analyzer (Rayto Life and Analytical Sciences Co., Ltd., China).

Stability in rat plasma = format: in vitro ADME
Method: For plasma stability studies, a PTP or PTP@PEG dispersion (1.2 mg·mL^–1, PTP-equivalent) was diluted with plasma to a final concentration of 100.0 μg·mL^–1. Plasma was obtained from male rat blood by centrifugation (1600 × g, 15 min). Aliquots (100 μL each) were incubated at 37 °C with agitation at 100 rpm, and samples were collected at designated time points in triplicate. Proteins were precipitated by adding 200 μL acetonitrile, followed by vortex mixing and centrifugation at 17 000 rpm and 4 °C for 30 min. The resulting supernatants were analyzed by HPLC.

[5] = Solid-state storage stability of PTP; format: physicochemical; settings: stored at −20 °C for 6 months; initial purity 98.5%
Method: For solid-state stability, 5.0 mg PTP was sealed in glass bottles and stored under controlled conditions in stability chambers (MMM Climacell-E, Germany). The samples were stored at 40 ± 2 °C and 75 ± 5% relative humidity, and 25 ± 2 °C and 60 ± 5% RH. Additional samples were stored at 4 °C and −20 °C in a refrigerator (BCD-610W, Siemens, Germany). At scheduled intervals, triplicate samples from each condition were analyzed for purity by HPLC.

## CC(=O)O[C@H]1C(=O)[C@@]2(C)[C@H]([C@H](OC(=O)c3ccccc3)[C@]3(O)C[C@H](OC(=O)[C@H](OC(=O)CCP(=O)(O)O)[C@@H](NC(=O)c4ccccc4)c4ccccc4)C(C)=C1C3(C)C)[C@]1(OC(C)=O)CO[C@@H]1C[C@@H]2O [PTP, PTX-2’–OOC-P]
[1]; above 1.0 mg·mL^–1
  water–air surface tension (plateau): approximately 55.0 mN·m^–1
[1]; water, 25 °C, inflection of surface tension versus log concentration
  critical aggregation concentration: 0.6 mg·mL^–1
Mouse breast 4T1 cells
  IC50: 82.4 nM
Human lung A549 cells
  IC50: 13.2 nM
[2]; PBS pH 7.4, 37 °C
  total release of PTP: 40.6%
[2]; PBS pH 7.4, 37 °C (data not shown)
  average release rate: 17.5 μg·h^–1
[3]
  IC50: 12.5 nM
[4]
  blood urea nitrogen (BUN) and creatinine (CREA) levels: comparable
Stability in rat plasma; rat plasma, 37 °C
  degradation faster than PTP@PEG: 1.2 fold
Stability in rat plasma; rat plasma, 37 °C, 100 μg·mL^–1 PTP-equivalent
  degradation rate constant (k) in plasma: 0.23 h^–1
Stability in rat plasma; rat plasma, 37 °C, after 10 h
  parent compound left: 10.4%
Stability in rat plasma; within 10 h, 100.0 μg·mL^–1
  degraded in plasma: approximately 90%
[5]
  purity after storage: 98.1%
